According to patent publication US6225321A (priority 1997, dated 2001):
Values joined by “and” are separate entries in the source; they are usually repeats but may differ in a detail not shown here. Equal values may be shown once. Where a name gives a salt, the structure may show the parent alone.

Key:
[1] = tested on: guinea pigs; assay: Analgesic effect, intramuscular, guinea pigs; assay type: in vivo, guinea pig; settings: hydrochloride
Experimental: Six male Sprague Dawley rats (175 to 225 g), and six male guinea pigs (200 to 250 g) were used.
Dose for guinea pig was 500 μ/kg, 250 μM/kg.

[2] = comparison value for Nalbuphine hydrochloride, source not stated; cited from earlier work
[3] = tested on: human; settings: Shafer et al. 1991; cited from earlier work
[4] = tested on: Sprague Dawley rats; assay: Analgesic effect, cold ethanol bath tail flick test, intramuscular, rats; assay type: in vivo, rat; settings: FIG. 6, rats, 25 micromole/kg intramuscular; for analgesic duration of Nalbuphine free base compared with the preparation of this ester: the shorter one is Nalbuphine free base
Experimental: Sprague Dawley rats(175 to 225 g) were used. Each group consisted of 6 rats and each rats was injected once intramuscularly on the rear leg. […]
The dose for each rat was 25 micromole per kg, intramuscularly.
In the experiment, a circulating cold ethanol bath with a temperature maintained at -20° C. was set up. After dosing, the rat tail(1/3 from the tip) was immersed in the bath. The latency for the rat to flick its tail from the bath was measured to be the nociceptive threshold. The effect of various opium alkaloid preparations can be determined with this test.
The nociceptive effect can be calculated as follows: [formula]
35, 25, 15 minutes before dosing, Male Sprague Dawley rat(175-225 g) was tested to measure the basic response latency. The time to top the experiment was set at 40 seconds to prevent the tail from cold sore. No cold sore were found in 40 sec. Five minutes after the drug was given to the rat, the flick test was performed every 10 minutes or more. […]
(c) Dinalbuphine sebacoyl ester, dose was 7.8125 μ/kg, 31.25 μM/kg, 125 μM/kg.
(d) 50 mg/ml dinalbuphine sebacoyl ester parenteral dosage forms, dinalbuphine sebacoyl ester was prepared in sesame oil.

[5] = cited from earlier work
[6] = between 17 and 28 hours; p<0.05

Oc1ccc2c3c1O[C@H]1[C@@H](O)CC[C@@]4(O)[C@@H](C2)N(CC2CCC2)CC[C@]314 [Nalbuphine hydrochloride]
dose at which significant analgesic effect was found [1]: 500 µM/kg and 250 µM/kg | half life for excretion [2]: about 1 hour

CN1CC[C@]23c4c5ccc(O)c4O[C@H]2[C@@H](O)C=C[C@H]3[C@H]1C5 [Morphine]
dose needed to elicit the same analgesic effect [3]: 10 mg

CCCCCCCCCC(=O)Oc1ccc2c3c1O[C@H]1[C@@H](O)CC[C@@]4(O)[C@@H](C2)N(CC2CCC2)CC[C@]314 [Nalbuphine decanoate]
analgesic duration of Nalbuphine free base compared with the preparation of this ester [4]: significantly shorter

C#C[C@]1(OC(=O)CCCCCC)CC[C@H]2[C@@H]3CCC4=CC(=O)CC[C@@H]4[C@H]3CC[C@@]21C [Northisterone enanthate]
dosing interval can be set longer to ([5]; Joshi et al. 1989): two months

CC(C)(C)C(=O)Oc1ccc2c3c1O[C@H]1[C@@H](O)CC[C@@]4(O)[C@@H](C2)N(CC2CCC2)CC[C@]314 [Nalbuphine pivalate]
analgesic duration of Nalbuphine free base compared with the preparation of this ester [4]: significantly shorter

Oc1ccc2c3c1O[C@H]1[C@@H](O)CC[C@@]4(O)[C@@H](C2)N(CC2CCC2)CC[C@]314 [Nalbuphine free base, reference compound]
analgesic duration compared with preparations of Nalbuphine monomer ester [4]: significantly shorter | amount of released Nalbuphine free base [6]: less in the preparation with sesame oil than with peanut oil ester and the control

O=C(Oc1ccc2c3c1O[C@H]1[C@@H](O)CC[C@@]4(O)[C@@H](C2)N(CC2CCC2)CC[C@]314)c1ccccc1 [Nalbuphine benzoate]
analgesic duration of Nalbuphine free base compared with the preparation of this ester [4]: significantly shorter

CCCCCCC(=O)Oc1ccc2c3c1O[C@H]1[C@@H](O)CC[C@@]4(O)[C@@H](C2)N(CC2CCC2)CC[C@]314 [Nalbuphine enanthate]
analgesic duration of Nalbuphine free base compared with the preparation of this ester [4]: significantly shorter

CCC(=O)Oc1ccc2c3c1O[C@H]1[C@@H](O)CC[C@@]4(O)[C@@H](C2)N(CC2CCC2)CC[C@]314 [Nalbuphine propionate]
analgesic duration of Nalbuphine free base compared with the preparation of this ester [4]: significantly shorter

C[C@]12CC[C@H]3[C@@H](CCC4=CC(=O)CC[C@@]43C)[C@@H]1CC[C@@H]2O [Testosterone]
drug release ([5]; suspension): released quickly

CCCCCCCCCC(=O)OC1(c2ccc(Cl)cc2)CCN(CCCC(=O)c2ccc(F)cc2)CC1 [Haloperidol decanoate]
dosing frequency to which effect was extended ([5]; intramuscular, Gelders 1986): 1 to 2 times a month

Oc1ccc2c(c1)[C@@]13CCCC[C@@]1(O)[C@@H](C2)N(CC1CCC1)CC3 [Butorphanol]
dose needed to elicit the same analgesic effect [3]: 2 mg
